Values quoted from earlier work, collected in Sander's compilation of Henry's law constants (doi:10.1063/1.1562632).
“And” between values parts separate entries of the source, which are not always exact repeats. Equal values may be shown once.

Assay: Henry solubility constant Hcp at 298.15 K (mol/(m3 Pa))
Settings: reference: Li et al. (2003); cited value

SMILES	Henry solubility constant Hcp
Clc1ccc(-c2ccccc2Cl)cc1 [2,4'-dichlorobiphenyl]	0.038 and 0.044
Clc1cc(Cl)c(-c2cc(Cl)c(Cl)cc2Cl)cc1Cl [2,2',4,4',5,5'-hexachlorobiphenyl]	0.04 and 0.051
Clc1cc(-c2ccccc2)c(Cl)c(Cl)c1Cl [2,3,4,5-tetrachlorobiphenyl]	0.049 and 0.05
Clc1ccc(Cl)c(-c2cc(Cl)c(Cl)cc2Cl)c1 [2,2',4,5,5'-pentachlorobiphenyl]	0.032 and 0.041
Clc1ccc(-c2ccc(Cl)cc2)cc1 [4,4'-dichlorobiphenyl]	0.07 and 0.075
Clc1ccc(Cl)c(-c2cc(Cl)ccc2Cl)c1 [2,2',5,5'-tetrachlorobiphenyl]	0.035 and 0.04
Clc1cc(Cl)c(-c2ccc(Cl)c(Cl)c2Cl)cc1Cl [2,2',3,4,4',5'-hexachlorobiphenyl]	0.025 and 0.033
Clc1ccc(-c2cc(Cl)c(Cl)cc2Cl)cc1Cl [2,3',4,4',5-pentachlorobiphenyl]	0.031 and 0.069
Clc1cc(Cl)c(-c2c(Cl)cc(Cl)cc2Cl)c(Cl)c1 [2,2',4,4',6,6'-hexachlorobiphenyl]	0.013 and 0.011
Clc1ccc(-c2cc(Cl)ccc2Cl)cc1 [2,4',5-trichlorobiphenyl]	0.027 and 0.029
Clc1cc(-c2cc(Cl)c(Cl)c(Cl)c2Cl)c(Cl)c(Cl)c1Cl [2,2',3,3',4,4',5,5'-octachlorobiphenyl]	0.15 and 0.23
Clc1ccc(-c2ccc(Cl)c(Cl)c2Cl)cc1Cl [2,3,3',4,4'-pentachlorobiphenyl]	0.03 and 0.072
